In ChEMBL document CHEMBL3352742, “Synthesis, molecular docking and biological evaluation of coumarin derivatives containing piperazine skeleton as potential antibacterial agents” (Bioorg Med Chem, 2014):
Values after ≈ are worked out from the molar mass of the structure shown.

How the values were obtained:
[1] = tested on: Bacillus subtilis; experiment: Antibacterial against Bacillus subtilis ATCC 530 after 24 hrs by two-fold serial dilution method; type: functional; conditions: ATCC 530, 24 h
[2] = tested on: Staphylococcus aureus; experiment: Antibacterial against Staphylococcus aureus ATCC 25923 after 24 hrs by two-fold serial dilution method; type: functional; conditions: ATCC 25923, 24 h
[3] = tested on: Escherichia coli; experiment: Antibacterial against Escherichia coli ATCC 25922 after 24 hrs by two-fold serial dilution method; type: functional; conditions: ATCC 25922, 24 h
[4] = tested on: Pseudomonas aeruginosa; experiment: Antibacterial against Pseudomonas aeruginosa ATCC 27853 after 24 hrs by two-fold serial dilution method; type: functional; conditions: ATCC 27853, 24 h
[5] = Inhibition of Staphylococcus aureus FabI assessed as oxidation of NADH to NAD+ by spectrophotometrically
[6] = Toxicity in human erythrocyte assessed as hemolysis by measuring hemoglobin release after 3 hrs; type: cell-based
[7] = Cytotoxicity against human macrophages assessed as cell viability after 24 hrs by MTT assay; type: functional, cell-based; conditions: Macrophage

Row | MIC [1] | MIC [2] | MIC [3] | MIC [4] | IC50 [5] | SMILES | LC30 [6] | IC50 [7]
1 | > 50 µg/mL | 41.5 µg/mL (≈ 114 µM) | 33.6 µg/mL (≈ 92.3 µM) | > 50 µg/mL | 45.5 µM | O=C(COc1cc(=O)oc2ccccc12)N1CCN(c2ccccc2)CC1 |  | 
2 | 1.86 µg/mL (≈ 4.29 µM) | > 50 µg/mL | > 50 µg/mL | 48.1 µg/mL (≈ 111 µM) | 19.8 µM | O=C(COc1cc(=O)oc2ccccc12)N1CCN(c2ccc(Cl)c(Cl)c2)CC1 |  | 
3 | 31.3 µg/mL (≈ 81.9 µM) | > 50 µg/mL | > 50 µg/mL | > 50 µg/mL | 43.2 µM | O=C(COc1cc(=O)oc2ccccc12)N1CCN(c2ccccc2F)CC1 |  | 
4 | 34.8 µg/mL (≈ 91 µM) | 29.1 µg/mL (≈ 76.1 µM) | > 50 µg/mL | > 50 µg/mL | 37.6 µM | O=C(COc1cc(=O)oc2ccccc12)N1CCN(c2ccc(F)cc2)CC1 |  | 
5 | 0.612 µg/mL (≈ 1.49 µM) | 1.83 µg/mL (≈ 4.46 µM) | > 50 µg/mL | 17.1 µg/mL (≈ 41.6 µM) | 2.73 µM | COc1cccc(N2CCN(CC(O)COc3cc(=O)oc4ccccc34)CC2)c1 (stereo not drawn) | > 10 µg/mL | 178 µM
6 | 37.9 µg/mL (≈ 99.7 µM) | > 50 µg/mL | > 50 µg/mL | > 50 µg/mL | 47.8 µM | O=c1cc(OCC(O)CN2CCN(c3ccccc3)CC2)c2ccccc2o1 (stereo not drawn) |  | 
7 | > 50 µg/mL | 23 µg/mL (≈ 58.4 µM) | > 50 µg/mL | > 50 µg/mL | 41.3 µM | O=c1cc(OCC(O)CN2CCN(Cc3ccccc3)CC2)c2ccccc2o1 (stereo not drawn) |  | 
8 | 2.86 µg/mL (≈ 6.99 µM) | 1.44 µg/mL (≈ 3.53 µM) | > 50 µg/mL | > 50 µg/mL | 6.23 µM | Cc1ccc(N2CCN(CC(O)COc3cc(=O)oc4ccccc34)CC2)c(C)c1 (stereo not drawn) | > 10 µg/mL | 127 µM
9 | 3.65 µg/mL (≈ 8.58 µM) | 2.4 µg/mL (≈ 5.63 µM) | > 50 µg/mL | 33 µg/mL (≈ 77.6 µM) | 3.82 µM | O=c1cc(OCC(O)CN2CCN(c3ccc([N+](=O)[O-])cc3)CC2)c2ccccc2o1 (stereo not drawn) | > 10 µg/mL | 153 µM
10 | 3.88 µg/mL (≈ 9.46 µM) | 2.52 µg/mL (≈ 6.15 µM) | > 50 µg/mL | 49.8 µg/mL (≈ 121 µM) | 5.54 µM | COc1ccccc1N1CCN(CC(O)COc2cc(=O)oc3ccccc23)CC1 (stereo not drawn) | > 10 µg/mL | 256 µM
11 | 0.236 µg/mL (≈ 0.575 µM) | 0.355 µg/mL (≈ 0.865 µM) | > 50 µg/mL | > 50 µg/mL | 0.57 µM | COc1ccc(N2CCN(CC(O)COc3cc(=O)oc4ccccc34)CC2)cc1 (stereo not drawn) | > 10 µg/mL | 198 µM
12 | 18.2 µg/mL (≈ 40.4 µM) | 26 µg/mL (≈ 57.8 µM) | > 50 µg/mL | > 50 µg/mL | 12.5 µM | O=c1cc(OCC(O)CN2CCN(c3cccc(Cl)c3Cl)CC2)c2ccccc2o1 (stereo not drawn) |  | 
13 | 0.339 µg/mL (≈ 0.754 µM) | > 50 µg/mL | > 50 µg/mL | > 50 µg/mL | 22.3 µM | O=c1cc(OCC(O)CN2CCN(c3ccc(Cl)c(Cl)c3)CC2)c2ccccc2o1 (stereo not drawn) |  | 
14 | 13.9 µg/mL (≈ 33.6 µM) | 11.6 µg/mL (≈ 28.1 µM) | > 50 µg/mL | > 50 µg/mL | 17.7 µM | O=c1cc(OCC(O)CN2CCN(c3ccccc3Cl)CC2)c2ccccc2o1 (stereo not drawn) |  | 
15 | 26 µg/mL (≈ 62.6 µM) | > 50 µg/mL | 40.6 µg/mL (≈ 97.8 µM) | > 50 µg/mL | 31.4 µM | O=c1cc(OCC(O)CN2CCN(c3cccc(Cl)c3)CC2)c2ccccc2o1 (stereo not drawn) |  | 
16 | > 50 µg/mL | > 50 µg/mL | > 50 µg/mL | > 50 µg/mL | 71.1 µM | O=c1cc(OCC(O)CN2CCN(c3ccccc3F)CC2)c2ccccc2o1 (stereo not drawn) |  | 
17 | > 50 µg/mL | > 50 µg/mL | 40.4 µg/mL (≈ 101 µM) | > 50 µg/mL | 62.9 µM | O=c1cc(OCC(O)CN2CCN(c3ccc(F)cc3)CC2)c2ccccc2o1 (stereo not drawn) |  | 
18 | 1.08 µg/mL (≈ 2.4 µM) | 0.957 µg/mL (≈ 2.13 µM) | > 50 µg/mL | > 50 µg/mL | 0.97 µM | O=c1cc(OCC(O)CN2CCN(c3cccc(C(F)(F)F)c3)CC2)c2ccccc2o1 (stereo not drawn) | > 10 µg/mL | 172 µM
19 | 15.8 µg/mL (≈ 39.5 µM) | > 50 µg/mL | > 50 µg/mL | > 50 µg/mL | 35.5 µM | O=C(COc1cc(=O)oc2ccccc12)N1CCN(c2ccc(Cl)cc2)CC1 |  | 
20 | 34.4 µg/mL (≈ 87.7 µM) | 46.4 µg/mL (≈ 118 µM) | > 50 µg/mL | > 50 µg/mL | 42.5 µM | Cc1ccc(N2CCN(C(=O)COc3cc(=O)oc4ccccc34)CC2)c(C)c1 |  | 
21 | 1.94 µg/mL (≈ 4.73 µM) | > 50 µg/mL | > 50 µg/mL | > 50 µg/mL | 11.4 µM | O=C(COc1cc(=O)oc2ccccc12)N1CCN(c2ccc([N+](=O)[O-])cc2)CC1 |  | 
22 | 11 µg/mL (≈ 27.8 µM) | 8.19 µg/mL (≈ 20.8 µM) | > 50 µg/mL | > 50 µg/mL | 7.15 µM | COc1ccccc1N1CCN(C(=O)COc2cc(=O)oc3ccccc23)CC1 | > 10 µg/mL | 164 µM
23 | 6.96 µg/mL (≈ 17.6 µM) | 0.837 µg/mL (≈ 2.12 µM) | > 50 µg/mL | > 50 µg/mL | 4.62 µM | COc1cccc(N2CCN(C(=O)COc3cc(=O)oc4ccccc34)CC2)c1 | > 10 µg/mL | 141 µM
24 | 0.861 µg/mL (≈ 2.18 µM) | 0.327 µg/mL (≈ 0.829 µM) | > 50 µg/mL | > 50 µg/mL | 0.83 µM | COc1ccc(N2CCN(C(=O)COc3cc(=O)oc4ccccc34)CC2)cc1 | > 10 µg/mL | 192 µM
25 | 4.51 µg/mL (≈ 10.4 µM) | 23.2 µg/mL (≈ 53.6 µM) | > 50 µg/mL | > 50 µg/mL | 8.41 µM | O=C(COc1cc(=O)oc2ccccc12)N1CCN(c2cccc(Cl)c2Cl)CC1 | > 10 µg/mL | 223 µM
26 | 7.18 µg/mL (≈ 18 µM) | 28.5 µg/mL (≈ 71.4 µM) | > 50 µg/mL | > 50 µg/mL | 21.9 µM | O=C(COc1cc(=O)oc2ccccc12)N1CCN(c2ccccc2Cl)CC1 |  | 
27 | 2.94 µg/mL (≈ 7.37 µM) | > 50 µg/mL | > 50 µg/mL | 46 µg/mL (≈ 115 µM) | 26.6 µM | O=C(COc1cc(=O)oc2ccccc12)N1CCN(c2cccc(Cl)c2)CC1 |  | 
28 | 0.916 µg/mL (≈ 2.12 µM) | 1.08 µg/mL (≈ 2.5 µM) | > 50 µg/mL | > 50 µg/mL | 1.82 µM | O=C(COc1cc(=O)oc2ccccc12)N1CCN(c2cccc(C(F)(F)F)c2)CC1 | > 10 µg/mL | 188 µM
29 | 0.752 µg/mL (≈ 2.25 µM) | 1.69 µg/mL (≈ 5.04 µM) | 22.4 µg/mL (≈ 66.9 µM) | 22 µg/mL (≈ 65.7 µM) |  | CC1(C)S[C@@H]2[C@H](NC(=O)Cc3ccccc3)C(=O)N2[C@H]1C(=O)O [PENICILLIN G] | > 10 µg/mL | 186 µM
